The values that follow come from patent US20250101003A1, “SPIROCYCLIC CAV2.3 ANTAGONISTS” (LARIO THERAPEUTICS LIMITED, priority 2021, published 2025).

Assay [1] deals with T1, Cav2.3 (Homo sapiens, UniProt Q15878). The assay can be described thus: Human Cav2.3 channel calcium-influx assay. The class given is cell-based. To be noted: HEK-293 T-Rex/Kir2.1/Cav2.3e-β4-α2δ1 cells, Fluo8 fluorescence, without pluronic acid; read-out: Cav2.3 (pIC50) (converted). Summed up: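 Doxycycline-induced HEK-293 T-Rex/Kir2.1 clone stably expressing Cav2.3e with β4-α2δ1, loaded with Fluo8 NW; compounds (8 points from 30 μM, half-log, 0.3% DMSO) preincubated 3 min at RT. Depolarized with 20 mM KCl/2 mM CaCl2; peak-minus-baseline fluorescence over 130 s normalized to neutral and inhibitor controls as % activity.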
Target sequence in this assay (Q15878 1-747 limits assumed): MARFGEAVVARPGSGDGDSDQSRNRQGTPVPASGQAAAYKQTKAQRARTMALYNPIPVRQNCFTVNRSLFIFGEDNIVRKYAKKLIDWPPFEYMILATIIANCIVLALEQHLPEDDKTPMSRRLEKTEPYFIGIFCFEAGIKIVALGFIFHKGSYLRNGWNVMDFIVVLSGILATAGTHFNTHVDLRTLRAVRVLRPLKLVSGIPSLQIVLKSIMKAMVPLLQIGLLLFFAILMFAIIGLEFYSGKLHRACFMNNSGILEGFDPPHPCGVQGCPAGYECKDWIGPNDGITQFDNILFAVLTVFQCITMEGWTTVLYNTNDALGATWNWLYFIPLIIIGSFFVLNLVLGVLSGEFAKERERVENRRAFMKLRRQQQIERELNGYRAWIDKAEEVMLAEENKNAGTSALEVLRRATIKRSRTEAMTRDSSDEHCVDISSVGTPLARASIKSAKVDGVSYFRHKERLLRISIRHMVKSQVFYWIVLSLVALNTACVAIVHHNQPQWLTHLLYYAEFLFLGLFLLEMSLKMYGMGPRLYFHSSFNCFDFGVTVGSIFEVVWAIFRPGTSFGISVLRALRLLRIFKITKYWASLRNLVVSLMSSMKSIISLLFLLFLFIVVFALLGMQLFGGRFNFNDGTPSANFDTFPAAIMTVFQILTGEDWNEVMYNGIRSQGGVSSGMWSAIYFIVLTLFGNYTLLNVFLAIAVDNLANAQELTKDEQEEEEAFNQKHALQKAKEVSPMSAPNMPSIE
Target sequence in this assay (Q15878 1126-2313 limits assumed): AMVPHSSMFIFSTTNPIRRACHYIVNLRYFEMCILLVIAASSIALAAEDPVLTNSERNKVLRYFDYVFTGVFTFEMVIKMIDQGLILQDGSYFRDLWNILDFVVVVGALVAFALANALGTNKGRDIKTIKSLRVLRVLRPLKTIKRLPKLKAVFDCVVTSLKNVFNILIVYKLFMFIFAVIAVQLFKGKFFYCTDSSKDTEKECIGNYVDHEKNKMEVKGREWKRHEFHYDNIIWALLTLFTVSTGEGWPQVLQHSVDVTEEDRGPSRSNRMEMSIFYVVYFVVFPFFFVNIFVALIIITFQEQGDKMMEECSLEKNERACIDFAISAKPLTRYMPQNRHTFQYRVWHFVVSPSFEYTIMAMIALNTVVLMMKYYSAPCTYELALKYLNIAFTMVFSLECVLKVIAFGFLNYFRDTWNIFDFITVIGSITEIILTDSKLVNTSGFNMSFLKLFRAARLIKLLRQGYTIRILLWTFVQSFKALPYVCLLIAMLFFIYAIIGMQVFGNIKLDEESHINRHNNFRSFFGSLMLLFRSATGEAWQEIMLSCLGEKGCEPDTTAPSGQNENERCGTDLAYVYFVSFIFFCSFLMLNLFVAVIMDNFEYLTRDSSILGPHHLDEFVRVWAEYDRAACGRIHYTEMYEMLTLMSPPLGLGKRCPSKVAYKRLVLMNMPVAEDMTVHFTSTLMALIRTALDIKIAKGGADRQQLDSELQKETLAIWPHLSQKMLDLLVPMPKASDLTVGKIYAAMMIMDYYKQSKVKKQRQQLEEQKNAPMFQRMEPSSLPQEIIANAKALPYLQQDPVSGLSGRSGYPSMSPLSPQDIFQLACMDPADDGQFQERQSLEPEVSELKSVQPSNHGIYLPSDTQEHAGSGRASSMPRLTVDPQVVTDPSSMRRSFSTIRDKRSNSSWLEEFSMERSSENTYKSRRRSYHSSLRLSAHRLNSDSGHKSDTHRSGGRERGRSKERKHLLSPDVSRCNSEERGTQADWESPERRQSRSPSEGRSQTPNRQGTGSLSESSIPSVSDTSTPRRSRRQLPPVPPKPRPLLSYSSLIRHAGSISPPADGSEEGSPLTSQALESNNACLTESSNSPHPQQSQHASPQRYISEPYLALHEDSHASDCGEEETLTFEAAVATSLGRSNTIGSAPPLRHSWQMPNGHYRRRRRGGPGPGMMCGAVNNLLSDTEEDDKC

Assay [2] concerns the target T1, Cav2.3. Kind of assay: Whole-cell patch clamp assay (QPatch 16X). In kind it is cell-based. To be noted: whole-cell voltage clamp, HEK-293 T-Rex/Kir2.1/Cav2.3e-β4-α2δ1 cells, room temperature; read-out: Cav2.3 (pIC50) (converted). On the procedure: HEK-293 T-Rex/Kir2.1/Cav2.3e-β4-α2δ1 cells were seeded 96 hours before experiment and doxycycline at 0.2 μg/mL was added 24 hours before experiment. Just before the experiments cells were washed twice with D-PBS w/o Ca2+/Mg2+ and gently detached from the flask with Detachin. Cells were then re-suspended in the suspension solution (25 mL EX-CELL ACF CHO medium; 0.25 mL of 100× Penicillin/Streptomycin) and placed on the Automated Patch-clamp platform (QPatch 16X).
Standard whole-cell voltage clamp experiments were performed at room temperature using the single hole technology and the following intracellular and extracellular solutions (ICS and ECS, respectively) were used. ICS (mM): CsF 60, CsCl 50, NaCl 10, EGTA 20, BAPTA 5, HEPES 10, NaGTP 0.3, MgATP 5 (pH 7.2; ECS (mM): NMDG-Cl 120, BaCl2 20, HEPES 10, EGTA 7 (pH 7.4). After establishment of the seal and the passage in the whole-cell configuration, the Cav2.3 dependent current was evoked by challenging the cells with the following voltage protocol: the plasma membrane was held at −80 mV then a 50 ms-long depolarizing pulse at 0 mV, followed by a 50 ms-long hyperpolarizing pulse at −100 mV were applied and finally the plasma membrane was held back to −80 mV. This voltage protocol was applied every 10 seconds. Cav2.3 dependent current was first measured in control condition (vehicle, 0.1% DMSO), in the presence of increasing concentration of the compound under investigation and finally SNX 482 was added to fully block any R-type Cav2.3 dependent current.
For data collection, the Sophion proprietary software was used while the analysis was performed off-line using Excel and GraphPad Prism. The inward current (Area Under Curve) measured during each depolarizing pulse was normalized to cell membrane capacitance (Cm) to obtain the average inward current density in each condition (control, compound under investigation and SNX 482). Then, the inhibitory effect of the compound under investigation was evaluated as % of the remaining inward current, normalized to the internal control. […] All data were expressed as mean±S.E
Target sequence in this assay (Q15878 1-747 limits assumed): as the sequence (Q15878 1-747 limits assumed) above
Target sequence in this assay (Q15878 1126-1966 limits assumed): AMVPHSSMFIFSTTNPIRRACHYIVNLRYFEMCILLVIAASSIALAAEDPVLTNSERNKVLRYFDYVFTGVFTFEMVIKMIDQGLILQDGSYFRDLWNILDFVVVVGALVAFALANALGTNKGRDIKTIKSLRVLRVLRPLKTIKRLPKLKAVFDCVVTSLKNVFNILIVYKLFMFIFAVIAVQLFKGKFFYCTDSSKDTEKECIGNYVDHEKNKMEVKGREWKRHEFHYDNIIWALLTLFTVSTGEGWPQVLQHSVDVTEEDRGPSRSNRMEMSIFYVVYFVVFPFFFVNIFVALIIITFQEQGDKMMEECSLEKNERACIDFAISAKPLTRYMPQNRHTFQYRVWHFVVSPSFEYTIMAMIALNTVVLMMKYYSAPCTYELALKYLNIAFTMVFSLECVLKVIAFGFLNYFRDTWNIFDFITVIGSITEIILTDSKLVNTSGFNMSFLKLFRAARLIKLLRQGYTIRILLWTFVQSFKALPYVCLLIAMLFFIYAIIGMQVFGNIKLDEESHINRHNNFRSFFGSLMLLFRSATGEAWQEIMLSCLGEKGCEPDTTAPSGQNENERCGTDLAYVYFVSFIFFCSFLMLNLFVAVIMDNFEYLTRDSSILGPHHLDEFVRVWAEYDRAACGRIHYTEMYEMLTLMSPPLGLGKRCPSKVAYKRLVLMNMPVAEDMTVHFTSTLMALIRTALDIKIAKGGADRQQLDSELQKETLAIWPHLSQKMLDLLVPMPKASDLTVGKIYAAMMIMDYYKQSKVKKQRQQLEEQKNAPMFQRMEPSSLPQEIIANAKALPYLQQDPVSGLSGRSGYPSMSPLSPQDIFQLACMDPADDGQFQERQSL
A general note: Patch clamp records ionic current or voltage across a cell membrane.

For the compound `CCC1CC2(CCC2)CN1S(=O)(=O)c1ccc2c(c1)CN(C(=O)C(F)(F)F)CC2` (centres unmarked) [Example 33, 1-(7-((7-Ethyl-6-azaspiro[3.4]octan-6-yl)sulfonyl)-3,4-dihydroisoquinolin-2(1H)-yl)-2,2,2-trifluoroethan-1-one], the IC50 at Cav2.3 [1] was 1860 nM; on Cav2.3 [2], 2820 nM.

In the case of `CCOC(=O)N1CCc2ccc(S(=O)(=O)N3CC4(CCC4)CC3C)cc2C1` (centres unmarked) [Example 22, Ethyl 7-((7-methyl-6-azaspiro[3.4]octan-6-yl)sulfonyl)-3,4-dihydroisoquinoline-2(1H)-carboxylate], the results for the IC50 at Cav2.3 [1] and on Cav2.3 [2] were 741 nM and 759 nM, respectively.

With `CC(C)C(=O)N1CCc2ccc(S(=O)(=O)N3CC4(CCCC4)CC3C)cc2C1` (centres unmarked) [Example 100, 2-Methyl-1-(7-((3-methyl-2-azaspiro[4.4]nonan-2-yl)sulfonyl)-3,4-dihydroisoquinolin-2(1H)-yl)propan-1-one], the IC50 at Cav2.3 [1] was 708 nM; at Cav2.3 [2], 1170 nM.

As for `CC1CC2(CCC2)CN1S(=O)(=O)c1ccc2c(c1)CN(C(=O)c1ccccc1)CC2` (single isomer, unassigned) [Example 27, (7-((7-Methyl-6-azaspiro[3.4]octan-6-yl)sulfonyl)-3,4-dihydroisoquinolin-2(1H)-yl)(phenyl)methanone], the IC50 at Cav2.3 [1] is 851 nM; at Cav2.3 [2], 832 nM.
